According to US10927086B2, “Substituted sulfoximine compounds as indoleamine 2,3-dioxygenase (IDO) inhibitors” (Merck Sharp & Dohme Corp., priority 2017, dated 2021):

Legend:
IDO1 [1] = molecular target: T1, IDO1 (Homo sapiens (Human), UniProt P14902); assay: IDO1 Enzyme Assay; type: biochemical; conditions: HIS-tagged recombinant IDO1, fluorescence readout
Description: (§1) Compounds to be tested were serially diluted in ten 3-fold steps in DMSO starting from 10 mM DMSO stocks. Compound dilutions or DMSO alone were then dispensed from the dilution plate into a Greiner black 384-well assay plate (catalog #781086) using an Echo 555 acoustic liquid handler (Labcyte).
HIS-tagged IDO1 protein was recombinantly expressed in Escherichia coli using ZYP5052 autoinduction media supplemented with 500 μM delta aminolevulinic acid for 48 h at 16° C. IDO1 protein was purified using Ni^2+-affinity resin and size exclusion chromatography. Purified protein was then diluted in assay buffer (50 mM Tris pH 7.0, 1% glycerol, 20 μM methylene blue, 0.05% Tween-20, 20 mM sodium ascorbate, 100 units/mL catalase to obtain a final IDO1 concentration of 40 nM. IDO1 solution […] or buffer alone ([…]) were dispensed to wells of the assay plate using a BioRAPTR liquid dispenser (Beckman Coulter). Assay plates containing compound and IDO1 enzyme were incubated at RT for 30 min. Afterwards, 10 μL of 400 μM tryptophan in assay buffer were added to each well of the assay plate using a BioRAPTR liquid dispenser. Plates were incubated at RT for 60 min and reactions were quenched by addition of 10 μL of 0.5 M methyl isonipecotate in dimethyl sulfoxide. Plates were sealed and incubated at 37° C. for 4 h or 50° C. for 2 h. The plates are allowed to cool and then centrifuged for 1 min at 1000×g. The resulting fluoresence was measured in an Envision plate reader (Perkin Elmer) with a 400/25 nm excitation filter and an 510/20 nm emission filter.
Potencies were calculated by linear least squares fit to the four parameter logistic IC50 equation.
Target sequence in this assay (P14902 whole entry, species assumed): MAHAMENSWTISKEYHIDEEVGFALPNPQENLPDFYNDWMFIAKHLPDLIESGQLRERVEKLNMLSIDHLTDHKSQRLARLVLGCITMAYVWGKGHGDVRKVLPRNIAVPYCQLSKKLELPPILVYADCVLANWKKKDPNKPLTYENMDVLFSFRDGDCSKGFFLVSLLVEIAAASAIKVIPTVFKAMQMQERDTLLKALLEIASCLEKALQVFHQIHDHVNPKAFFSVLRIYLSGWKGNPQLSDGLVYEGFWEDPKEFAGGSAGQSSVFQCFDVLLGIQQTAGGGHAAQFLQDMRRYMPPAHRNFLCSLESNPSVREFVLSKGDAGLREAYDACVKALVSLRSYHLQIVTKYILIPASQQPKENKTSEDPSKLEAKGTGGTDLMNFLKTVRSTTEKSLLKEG

IDO1 [2] = molecular target: T1, IDO1; assay: IDO1 Cellular Assay in Hela Cells Stimulated with IFNγ; type: cell-based; conditions: about 48 hours, read-out: IDO1 HELA Cell Assay, IC50
Description: Hela cells were cultured in complete Hela culture medium (90% EMEM, 10% heat-inactivated fetal bovine serum) and expanded to about 1×10^9 cells. The cells were then collected and frozen down at 10×10^6 cells/vial in 1 mL frozen medium (90% complete Hela culture medium, 10% DMSO)
as §1, with “stocks in Echo low volume plate(s).” for “stocks.”, “plate(s)” for “plate”, “into” for “into a”, “#781086, 50 nL/well)” for “#781086)”, “550” for “555”
Target sequence in this assay (P14902 whole entry): as the sequence (P14902 whole entry, species assumed) above
Frozen Hela cells were thawed and transferred into Hela assay medium (99% complete Hela culture medium, 1% Pen/Strep) with 20 mL medium/vial of cells. The cells were spun down at 250 g in a table top centrifuge for 5 min and suspended in same volume of Hela assay medium. The cells were then counted and adjusted to a density of 2×10^5 cells/ml in Hela assay medium. Sterile L-tryptophan were added to the cells with final concentration of 300 uM L-tryptophan. A small aliquot (2 mL/plate) of Hela cells were set aside and were not treated with IFNγ, to serve as the Max-E control. The rest of Hela cells were added with sterile IFNγ (Cat #285-IF, R & D systems) with a final concentration of 100 ng/mL.
Hela cells with and without IFNγ were dispensed to the respective wells of 384-well assay plates containing the compounds. The plates were incubated for about 48 hours at a 37° C., 5% CO2 incubator. Afterwards, 12 μL of 0.5 M methyl isonipecotate in dimethyl sulfoxide were added into each well and the plates were sealed and incubated at 37° C. without CO2 overnight. The plates were centrifuged for 1 min at 200×g. The resulting fluorescence was measured in a Spectramax plate reader (Molecular Devices) with a 400 nm excitation filter and a 510 nm emission filter.
The fluorescence intensity of each well was corrected for the background observed in wells with non-IFNγ-treated cells and was expressed as a fraction of the intensity observed in wells of IFNγ-treated cells and DMSO only. Potencies were calculated by linear least squares fit to the four parameter logistic IC50 equation.

Structure (SMILES) | IC50 (IDO1 [1]) | IC50 (IDO1 [2])
CS(=N)(=O)CC(=O)N1CC(Oc2nonc2/C(=N/O)N[C@H]2Cc3ccc(F)cc32)C1 (single isomer, unassigned) [Example 49] | 0.112 µM | 0.0995 µM
N=S1(=O)CCC1CNc1nonc1/C(=N/O)N[C@H]1Cc2ccc(F)cc21 (single isomer, unassigned) [Example 23] | 0.143 µM | 0.0994 µM
CS(=N)(=O)N1CC2(CC(Nc3nonc3/C(=N\O)N[C@@H]3Cc4ccc(F)cc43)C2)C1 (single isomer, unassigned) [Example 76] | 0.0399 µM | 0.0176 µM
CS(=N)(=O)CC12CC(Nc3nonc3/C(=N\O)N[C@@H]3Cc4ccc(F)cc43)(C1)C2 (single isomer, unassigned) [Example 83] | 0.0815 µM | 0.0839 µM
CS(=N)(=O)N[C@H]1C[C@@H](Oc2nonc2/C(=N\O)N[C@@H]2Cc3ccc(F)cc32)C1 (single isomer, unassigned) [Example 62] | 0.147 µM | 0.183 µM
CS(=N)(=O)CC(O)CNc1nonc1/C(=N/O)N[C@H]1Cc2ccc(F)cc21 (single isomer, unassigned) [Example 28] | 0.0607 µM | 0.11 µM
CS(=N)(=O)CCC(O)CNc1nonc1/C(=N\O)N[C@@H]1Cc2ccc(F)cc21 (single isomer, unassigned) [Example 81] | 0.095 µM | 0.0628 µM
CC(O)CS(=N)(=O)CCNc1nonc1/C(=N\O)N[C@@H]1Cc2ccc(F)cc21 (single isomer, unassigned) [Example 84] | 0.0568 µM | 0.0552 µM
CS(=N)(=O)CCNC(=O)CNc1nonc1/C(=N/O)N[C@H]1Cc2ccc(F)cc21 (stereo partly drawn) [Example 12, 2-((4-(N-((S)-4-fluorobicyclo[4.2.0]octa-1(6),2,4-trien-7-yl)-N′-hydroxycarbamimidoyl)-1,2,5-oxadiazol-3-yl)amino)-N-(2-(S-methylsulfonimidoyl)ethyl)acetamide] | 0.0493 µM | 0.114 µM
CS(=N)(=O)N1CC2(CC(Nc3nonc3/C(=N\O)N[C@@H]3Cc4ccc(F)cc43)C2)C1 (single isomer, unassigned) [Example 77] | 0.0341 µM | 0.0227 µM
CS(=N)(=O)CCC(O)CNc1nonc1/C(=N\O)N[C@@H]1Cc2ccc(F)cc21 (single isomer, unassigned) [Example 78] | 0.0578 µM | 0.0748 µM
CS(=N)(=O)N1CCC(Nc2nonc2/C(=N/O)N[C@H]2Cc3ccc(F)cc32)C1 (single isomer, unassigned) [Example 45] | 0.107 µM | 0.085 µM
CS(=N)(=O)N1CC(O)(CNc2nonc2/C(=N/O)N[C@H]2Cc3ccc(F)cc32)C1 (single isomer, unassigned) [Example 37] | 0.108 µM | 0.312 µM
CS(=N)(=O)C1CC2(CC(Nc3nonc3/C(=N\O)N[C@@H]3Cc4ccc(F)cc43)C2)C1 (single isomer, unassigned) [Example 74] | 0.0737 µM | 0.0322 µM
CS(=N)(=O)CCCCNc1nonc1/C(=N/O)N[C@H]1Cc2ccc(F)cc21 (single isomer, unassigned) [Example 39] | 0.0508 µM | 0.0357 µM
CS(=N)(=O)NCCOc1nonc1/C(=N/O)N[C@H]1Cc2ccc(F)cc21 (single isomer, unassigned) [Example 51] | 0.262 µM | 0.317 µM
CN(CCNc1nonc1/C(=N\O)N[C@H]1Cc2ccc(F)cc21)S(C)(=N)=O (stereo partly drawn) [Example 54, N-[(7S)-4-fluorobicyclo[4.2.0]octa-1,3,5-trien-7-yl]-N′-hydroxy-4-({2-[methyl(S-methylsulfonimidoyl)amino]ethyl}amino)-1,2,5-oxadiazole-3-carboximidamide] | 0.108 µM | 0.102 µM
CS(=N)(=O)N1CCC(Nc2nonc2/C(=N/O)N[C@H]2Cc3ccc(F)cc32)C1 (single isomer, unassigned) [Example 43] | 0.169 µM | 0.157 µM
CS(=N)(=O)CC(O)CNc1nonc1/C(=N/O)N[C@H]1Cc2ccc(F)cc21 (single isomer, unassigned) [Example 26] | 0.0537 µM | 0.0999 µM

Structure (SMILES) | IC50 (IDO1 [1]) | IC50 (IDO1 [2])
CS(=N)(=O)CCCNc1nonc1/C(=N/O)N[C@H]1Cc2ccc(F)cc21 (single isomer, unassigned) [Example 24] | 0.0354 µM | 0.0399 µM
CS(=N)(=O)CCOCCNc1nonc1/C(=N/O)N[C@H]1Cc2ccc(F)cc21 (single isomer, unassigned) [Example 47] | 0.154 µM | 0.196 µM
CS(=O)(CCNc1nonc1/C(=N\O)N[C@H]1Cc2ccc(F)cc21)=NCCO (single isomer, unassigned) [Example 57] | 0.0706 µM | 0.109 µM
CS(=N)(=O)CC(O)CNc1nonc1/C(=N/O)N[C@H]1Cc2ccc(F)cc21 (single isomer, unassigned) [Example 27] | 0.0433 µM | 0.129 µM
C[S@@](=N)(=O)CCCOc1nonc1/C(=N/O)NC1Cc2ccc(F)cc21 (single isomer, unassigned) [Example 30] | 0.231 µM | 0.384 µM
CS(=N)(=O)CC(=O)N1CC(Oc2nonc2/C(=N/O)N[C@H]2Cc3ccc(F)cc32)C1 (single isomer, unassigned) [Example 50] | 0.111 µM | 0.153 µM
CN=S(C)(=O)CCNc1nonc1/C(=N/O)N[C@H]1Cc2ccc(F)cc21 (single isomer, unassigned) [Example 35] | 0.0816 µM | 0.0432 µM
CS(=N)(=O)N1CCO[C@@H](CNc2nonc2/C(=N\O)N[C@H]2Cc3ccc(F)cc32)C1 (single isomer, unassigned) [Example 60] | 0.234 µM | 0.329 µM
CS(=O)(CCNc1nonc1/C(=N\O)N[C@H]1Cc2ccc(F)cc21)=NCCO (single isomer, unassigned) [Example 58] | 0.125 µM | 0.123 µM
CC(O)CS(=N)(=O)CCNc1nonc1/C(=N\O)N[C@@H]1Cc2ccc(F)cc21 (single isomer, unassigned) [Example 85] | 0.0495 µM | 0.0497 µM
CS(=N)(=O)N1CCC(Nc2nonc2/C(=N/O)N[C@H]2Cc3ccc(F)cc32)CC1 (single isomer, unassigned) [Example 19] | 0.0672 µM | 0.0621 µM
CS(=N)(=O)N1CC(CNc2nonc2/C(=N\O)N[C@@H]2Cc3ccc(F)cc32)C1 (single isomer, unassigned) [Example 71] | 0.08 µM | 0.0723 µM
CS(=N)(=O)C1CC2(CC(Nc3nonc3/C(=N\O)N[C@@H]3Cc4ccc(F)cc43)C2)C1 (single isomer, unassigned) [Example 75] | 0.0904 µM | 0.0403 µM
CS(=N)(=O)CCCCOc1nonc1/C(=N/O)N[C@H]1Cc2ccc(F)cc21 (single isomer, unassigned) [Example 33] | 0.184 µM | 0.288 µM
CN=S(C)(=O)CCNc1nonc1/C(=N/O)N[C@H]1Cc2ccc(F)cc21 (single isomer, unassigned) [Example 34] | 0.0598 µM | 0.077 µM
CS(=N)(=O)CC12CC(Nc3nonc3/C(=N\O)N[C@@H]3Cc4ccc(F)cc43)(C1)C2 (single isomer, unassigned) [Example 82] | 0.0917 µM | 0.082 µM
C[S@](=N)(=O)C1CC(Nc2nonc2/C(=N\O)N[C@@H]2Cc3ccc(F)cc32)C1 (single isomer, unassigned) [Example 72] | 0.0495 µM | 0.0635 µM
N=S1(=O)CCC1CNc1nonc1/C(=N/O)N[C@H]1Cc2ccc(F)cc21 (single isomer, unassigned) [Example 22] | 0.137 µM | 0.0815 µM
